According to US20030180248A1, “Cosmetic composition containing the extract of mountain ginseng adventitious roots” (priority 2001, published 2003):

Tested on: transformed mouse fibroblast L929 cells
Experiment: Cytotoxicity, Neutral Red uptake
Format: cell-based
Details: 48 hours
Source text: Extracts from tissue-cultured mountain ginseng adventitious roots, prepared in Examples 1 to 3, were examined for cytotoxicity, in comparison with a red ginseng extract and arbutin, which are conventionally used as skin-whitening materials.
After being recovered by trypsinization, the transformed mouse fibroblast L929 cells were suspended in DMEM supplemented with 2% BCS (bovine calf serum), and the suspension was aliquoted at a concentration of 2,500-3,000 cells/well into each well of 96 well tissue culture plates, followed by incubation at 37° C. for 48 hours in a 5% CO2 atmosphere. After substitution of the medium with a fresh, serum-free one, the cells were treated with the test materials shown in Table 2, below, and cultured for 48 hours. To each well, Neutral Red (50 μg/ml) was added, and reacted with cells for 3 hours. After completion of the accumulation of Neutral Red in live cells, the dye was fixed with the use of 1.0% formalin/1.0% CaCl2. Neutral Red was extracted from cells using 1.0% acetic acid/50% ethanol solution. The extracted Neutral Red was analyzed by ELISA to measure the cytotoxicity of the test materials according to concentrations.

SMILES: OC[C@H]1O[C@@H](Oc2ccc(O)cc2)[C@H](O)[C@@H](O)[C@@H]1O [Arbutin]
- NR50 (Neutral Red): 0.29 w/w %
- Cytotoxicity (Neutral Red reading) (concentration 0.001 w/w %): 98
- Cytotoxicity (Neutral Red reading) (concentration 0.01 w/w %): 82
- Cytotoxicity (Neutral Red reading) (concentration 0.1 w/w %): 63
- Cytotoxicity (Neutral Red reading) (concentration 1 w/w %): 2
